From patent publication US5621000A, “Nitric esters having a pharmacological activity and process for their preparation” (priority 1992, dated 1997)
Like-named read-outs stand apart in the source and are kept apart here.

Columns and labels:
[1] = system: adjuvant arthritis; experiment: Rat adjuvant arthritis; assay type: in vivo; settings: 3 mg/kg p.o., 19 consecutive days (days 3 through 21 after adjuvant injection), compared to controls
[2] = system: carrageenan paw edema; experiment: Carrageenan paw edema, anti-inflammatory activity; assay type: in vivo, Wistar rats; settings: for efficacy in rat carrageenan paw edema vs reference drugs: p.o., compared with Ketoprofen and Flurbiprofen; for ANTI-INFLAM. ACTIVITY (power ratio relative to the corresponding acid): carrageenan paw edema, Wistar rats, mean of 10 animals
Procedure: (§1) The anti-inflammatory and anti-platelet aggregation activity as well as the gastrointestinal ulcerogenicity, for instance of nitric esters having the following formulae, were tested by means of biological studies: [drawing 16]
The anti-inflammatory activity of said nitric esters was determined in Wistar rats utilizing the method of the carrageenan paw edema, as reported in C. A. WINTER, E. RISLEY, G. W. NUSS, Proc. Soc. Exp. Biol. Med. 111,544 (1962), while the anti-platelet aggregation activity of said derivatives was determined on human platelets stimulated by arachidonic acid, according to the method described by V. BERTELE et al., Science 220,517 (1983).
(§2) The anti-inflammatory and anti-platelet aggregation activity as well as the gastrointestinal ulcerability activity of said derivatives are given on Table 1, and are expressed, for each nitric ester indicated, as the power ratio relative to the corresponding acids non functionalized according to the general formula (I), according to this invention. Each value represents the mean of the values obtained by the treatment of 10 animals.

[3] = system: prostaglandin E2 synthesis (gastric); experiment: Gastric prostaglandin synthesis; assay type: in vivo; settings: for inhibition of gastric prostaglandin E2 synthesis: at the highest dose (5-20 mg/kg p.o.)
[4] = system: central nervous, autonomic, cardiovascular, respiratory and gastrointestinal systems; experiment: General (secondary) pharmacology; assay type: in vivo; settings: in comparison with Ketoprofen or Flurbiprofen
[5] = system: plasma nitrate/nitrite levels; experiment: NO release: plasma nitrate/nitrite levels; assay type: in vivo; settings: for increase of plasma nitrate/nitrite levels: one hour after the administration; for effect on plasma nitrate/nitrite levels: reference compounds
[6] = Rat gastric mucosa injury; settings: po
[7] = system: prostaglandin E2 in exudate; experiment: Prostaglandin synthesis in the inflammatory exudate (carrageenan sponge); assay type: in vivo; settings: for inhibition at 20 mg/kg: po, read-out: inhibition of the formation of prostaglandin E2 in exudate
Description: PROSTAGLANDIN SYNTHESIS IN THE INFLAMMATORY EXUDATE.
Subcutaneous implantation of carrageenan sponge elicits the infiltration of inflammatory cells, as reported in Nature 284, 271 (1980). […]

[8] = system: phenylquinone writhing; experiment: Mouse phenylquinone writhing; assay type: in vivo; settings: 3 to 10 mg/kg p.o.
[9] = system: non rodents; experiment: in vivo; assay type: in vivo; settings: for tolerability in non rodents: increasing oral doses up to 30 mg/kg, preliminary; for mortality in non rodents: 10 mg/kg, reference compounds
[10] = in vivo; assay type: in vivo; settings: in vivo, read-out: maximum tolerated dose: highest oral dose without apparent symptoms
[11] = system: leukocyte adherence to mesenteric post-capillary venules; experiment: Gastric leukocyte adherence/vessel diameter (intravital microscopy); assay type: in vivo; settings: for blood pressure: one hour period after administration
Description: GASTRIC LEUKOCYTE ADHERENCE/VESSEL DIAMETER. […] J. Physiol.

[12] = system: human platelets; experiment: Anti-platelet aggregation activity on platelets stimulated by arachidonic acid; assay type: cell-based
Procedure: as §1
The anti-inflammatory activity of said nitric esters was determined in Wistar rats utilizing the method of the carrageenan paw edema, as reported in C. A. WINTER, E. RISLEY, G. W. NUSS, Proc. Soc.
as §2

[13] = system: gastric mucosa; experiment: Rat gastric mucosa injury
[14] = system: collagen-induced platelet aggregation; experiment: In vivo platelet aggregation, collagen-induced; settings: 20 mg/kg p.o. in the rat; for inhibition at 20 mg/kg: Platelet, po, versus controls
Description: IN VIVO PLATELET AGGREGATION.

[15] = system: gastrointestinal ulcerogenicity; experiment: Gastrointestinal ulcerability after oral administration; assay type: in vivo, rat
Procedure: as §1
The gastrointestinal ulcerability was evaluated by oral administration in the rat.
as §2

[16] = system: mouse; experiment: Preliminary acute toxicity in the mouse by two administration routes; assay type: in vivo; settings: oral or intraperitoneal doses of 300 mg/kg
[17] = system: gastric mucosa; settings: rat, in vivo, po
[18] = prior to and during one hour after administration, intravital microscopy
[19] = oral administration in the rat, ratio to corresponding acid, mean of 10 animals

CC(C(=O)OCCCCO[N+](=O)[O-])c1ccc(-c2ccccc2)c(F)c1 (stereo not drawn) [(XII), nitric ester of 2-fluoro-alpha-methyl-4-diphenyl acetate of 4-hydroxybutyl]
reduction in the arthritic symptomatology [1]: significant and comparative reduction in the arthritic symptomatology | efficacy in rat carrageenan paw edema vs reference drugs [2]: efficacy comparable with the corresponding reference drugs | inhibition of gastric prostaglandin E2 synthesis [3]: more than 90% | additional adverse reactions (secondary pharmacological evaluation) [4]: No relevant additional adverse reactions were observed | increase of plasma nitrate/nitrite levels [5]: more than 50% | NOAEL ([6]; in vivo): ≥ 30 mg/kg | inhibition at 20 mg/kg [7]: > 75% | efficacy in phenylquinone writhing [8]: fully effective | tolerability in non rodents [9]: very well tolerated | MTD ([10]; oral, non rodents, increasing doses up to 30 mg/kg, preliminary): ≥ 30 mg/kg | blood pressure [11]: No changes in blood pressure were observed | diameter of vessels [11, 18]: increasing the diameter of vessels significantly | leukocyte adherence to post-capillary venules [11, 18]: did not induce significant leukocyte adherence

CC(C(=O)OCCCCO[N+](=O)[O-])c1cccc(C(=O)c2ccccc2)c1 (stereo not shown) [(XVIII), nitric ester of 2-(3-benzoilphenyl)propionate of 4-hydroxybutyl]
reduction in the arthritic symptomatology [1]: significant and comparative reduction in the arthritic symptomatology | ANTI-INFLAM. ACTIVITY (power ratio relative to the corresponding acid) [2]: 1,25 | efficacy in rat carrageenan paw edema vs reference drugs [2]: efficacy comparable with the corresponding reference drugs | ANTI-AGGREG. ACTIVITY (power ratio relative to the corresponding acid) [12]: 1,35 | inhibition of gastric prostaglandin E2 synthesis relative to reference compounds ([3]; 5-20 mg/kg p.o., vs Ketoprofen and Flurbiprofen): inhibited significantly and comparatively to the corresponding reference compounds | inhibition of gastric prostaglandin E2 synthesis [3]: more than 90% | additional adverse reactions (secondary pharmacological evaluation) [4]: No relevant additional adverse reactions were observed | increase of plasma nitrate/nitrite levels [5]: more than 50% | NOAEL ([6]; gastric mucosa): ≥ 30 mg/kg | gastric tolerability relative to reference compounds ([13]; 3 to 30 mg/kg p.o.): significantly better tolerated than reference compounds | efficacy on exudate prostaglandin E2 relative to reference compounds ([7]; 20 mg/kg p.o., vs Ketoprofen and Flurbiprofen): comparative efficacy to the corresponding reference compounds | inhibition at 20 mg/kg ([7]; 20 mg/kg p.o., compared with controls): > 75% | inhibition of platelet aggregation, comparison with Flurbiprofen [14]: significantly more effective than the latter | inhibition at 20 mg/kg [14]: 66% | GASTRO-INTESTINAL ULCERABILITY (power ratio relative to the corresponding acid) [15, 19]: 0,20 | efficaciousness in phenylquinone writhing relative to reference compounds [8]: almost comparable with that of the corresponding reference compounds | efficacy in phenylquinone writhing [8]: fully effective | tolerability in non rodents [9]: very well tolerated | MTD ([10]; po): ≥ 30 mg/kg | acute toxicity [16]: No evident toxicity was observed | blood pressure [11]: No changes in blood pressure were observed | diameter of vessels [11, 18]: increasing the diameter of vessels significantly | leukocyte adherence to post-capillary venules [11, 18]: did not induce significant leukocyte adherence

CC(C(=O)OCCCCO[N+](=O)[O-])c1ccc(C(=O)c2cccs2)cc1 (stereo not shown) [(XXIV)]
ANTI-INFLAM. ACTIVITY (power ratio relative to the corresponding acid) [2]: 1,20 | ANTI-AGGREG. ACTIVITY (power ratio relative to the corresponding acid) [12]: 1,30 | GASTRO-INTESTINAL ULCERABILITY (power ratio relative to the corresponding acid) [15, 19]: 0,35

CCC(C(=O)OCCCCO[N+](=O)[O-])c1ccc(N2Cc3ccccc3C2=O)cc1 (stereo not shown) [(XXV)]
ANTI-INFLAM. ACTIVITY (power ratio relative to the corresponding acid) [2]: 1,05 | ANTI-AGGREG. ACTIVITY (power ratio relative to the corresponding acid) [12]: 1,25 | GASTRO-INTESTINAL ULCERABILITY (power ratio relative to the corresponding acid) [15, 19]: 0,30

CCc1cccc2c3c([nH]c12)C(CC)(CC(=O)OCCCCO[N+](=O)[O-])OCC3 (stereo not shown) [(XXVI)]
ANTI-INFLAM. ACTIVITY (power ratio relative to the corresponding acid) [2]: 1,40 | ANTI-AGGREG. ACTIVITY (power ratio relative to the corresponding acid) [12]: 1,10 | GASTRO-INTESTINAL ULCERABILITY (power ratio relative to the corresponding acid) [15, 19]: 0,33

CC(C(=O)O)c1ccc(-c2ccccc2)c(F)c1 (stereo not shown) [Flurbiprofen, reference compound]
effect on plasma nitrate/nitrite levels [5]: did not affect plasma nitrate/nitrite levels significantly | inhibition at 20 mg/kg [14]: 40% | dose causing the onset of gastric damages [17]: ≤ 3 mg/kg | mortality in non rodents [9]: caused the death of the animals | leukocyte adherence to post-capillary venules ([11]; in vivo): Unlike Ketoprofen or Flurbiprofen, (XVIII) or (XII) did not induce significant leukocyte adherence

CCC(C(=O)O)c1ccc(N2Cc3ccccc3C2=O)cc1 (stereo not shown) [Indobufen, reference compound]
ANTI-INFLAM. ACTIVITY (power ratio relative to the corresponding acid) [2]: 1 | ANTI-AGGREG. ACTIVITY (power ratio relative to the corresponding acid) [12]: 1 | GASTRO-INTESTINAL ULCERABILITY (power ratio relative to the corresponding acid) [15, 19]: 1

CC(C(=O)O)c1cccc(C(=O)c2ccccc2)c1 (stereo not shown) [Ketoprofen, 2-(3-benzoylphenyl)propionic acid, reference compound]
effect on plasma nitrate/nitrite levels [5]: did not affect plasma nitrate/nitrite levels significantly | severity of gastric damages ([13]; 3 to 30 mg/kg p.o.): dose-dependent | dose causing the onset of gastric damages ([13]; p.o.): ≤ 3 mg/kg | mortality in non rodents [9]: caused the death of the animals | leukocyte adherence to post-capillary venules [11, 18]: Unlike Ketoprofen or Flurbiprofen, (XVIII) or (XII) did not induce significant leukocyte adherence

CC(C(=O)O)c1ccc(C(=O)c2cccs2)cc1 (stereo not shown) [Suprofen, reference compound]
ANTI-INFLAM. ACTIVITY (power ratio relative to the corresponding acid) [2]: 1 | ANTI-AGGREG. ACTIVITY (power ratio relative to the corresponding acid) [12]: 1 | GASTRO-INTESTINAL ULCERABILITY (power ratio relative to the corresponding acid) ([15]; rat, in vivo, po): 1
